Experimental data taken from patent publication US9062088B2, “CDK-inhibiting pyrrolopyrimidine carboxamide derivative or pharmaceutically acceptable salt thereof, and pharmaceutical composition containing the same as active ingredient for preventing or treating hepatocellular carcinoma” (SNU R&DB Foundation, priority 2010, dated 2015).

Experiments:
Cdk7 = assay: Western blotting of Cdk7 activity (phospho RNA Pol II Ser 5); type: cell-based, human; details: 0 nM = 100
Protocol: (§1) After treating the compound of Example 2 to SNU-354 cells, cell pellet was lysed with lysis buffer (0.5% triton X-100, 20 mM Tris-HCl (pH 7.5), 2 mM magnesium chloride, 1 mM DTT, 1 mM EGTA, 50 mM β-glycerophosphate, 25 mM sodium fluoride, 1 mM Na3VO4, 2 μg/mL leupeptin, 2 μg/mL pepstatin A, 100 μg/mL phenylmethylsulfonyl fluoride, and 1 μg/mL antipain) at 4° C. for 1 hour, followed by quantification of protein. A proper amount of protein was electrophoresed on SDS-PAGE gel and then transferred onto polyvinylidene difluoride membrane (Millipore Co., Bedford, Mass.). The membrane was reacted in inhibiting solution (PBS, 5% skim milk, 0.1% tween-20) at room temperature for 1˜2 hours. The membrane was reacted with the primary antibody (goat anti-phospho-Rb, rabbit anti-nucleolin) diluted in the inhibiting solution (1:1000). Then, the membrane was washed with PBST, followed by reaction with the proper secondary antibody (horseradish peroxidase (HRP) conjugated) at room temperature for 1 hour.
(§2) Experiment was performed by the same manner as described in step 2 of Experimental Example 1 except that rabbit anti-phospho RNA Pol II (Ser 5) and rabbit anti-phospho RNA Pol II (Ser 2) (from Bethyl, TX, USA) were used as primary antibodies. The results are shown FIG. 9˜FIG. 12, and Table 4 and Table 5.

Cdk9 = assay: Western blotting of Cdk9 activity (phospho RNA Pol II Ser 2); type: cell-based, human; details: 0 nM = 100
Protocol: as §1, §2

SNU-354 cells [1] = assay: Western blotting of PARP cleavage; type: cell-based, human; details: FIG. 17
Protocol: as §1
Experiment was performed by the same manner as described in step 2 of Experimental Example 2 except that rabbit anti-PARP was used as the primary antibody and the results are shown in FIG. 17.

Cdk7/cyclin H/MAT1 = target: T1, Cdk7/cyclin H/MAT1 (Homo sapiens, UniProt P50613); assay: In vitro kinase assay of Cdk7, RNA Pol II-CTD-GST substrate; type: biochemical; details: 0 nM = 100
T1 construct: purchased Upstate
T1 sequence (P50613 whole entry): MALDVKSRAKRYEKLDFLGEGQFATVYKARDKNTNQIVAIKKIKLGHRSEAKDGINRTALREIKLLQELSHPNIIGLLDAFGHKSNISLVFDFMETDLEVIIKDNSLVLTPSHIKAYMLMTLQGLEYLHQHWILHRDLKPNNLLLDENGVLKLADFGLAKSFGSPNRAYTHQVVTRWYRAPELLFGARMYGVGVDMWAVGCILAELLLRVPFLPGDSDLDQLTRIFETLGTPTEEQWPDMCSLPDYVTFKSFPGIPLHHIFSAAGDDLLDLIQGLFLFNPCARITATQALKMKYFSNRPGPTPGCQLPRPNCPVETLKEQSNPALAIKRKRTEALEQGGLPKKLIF
T1 sequence (P51946 whole entry partner): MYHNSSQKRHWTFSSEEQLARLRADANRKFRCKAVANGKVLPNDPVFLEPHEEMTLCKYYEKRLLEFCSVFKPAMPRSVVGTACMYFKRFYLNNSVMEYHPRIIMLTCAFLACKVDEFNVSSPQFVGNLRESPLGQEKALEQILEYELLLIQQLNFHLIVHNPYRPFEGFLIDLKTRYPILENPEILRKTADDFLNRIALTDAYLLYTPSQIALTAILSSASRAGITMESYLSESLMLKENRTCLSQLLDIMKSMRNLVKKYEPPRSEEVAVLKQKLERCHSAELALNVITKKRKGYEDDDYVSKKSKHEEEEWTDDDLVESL
T1 sequence (P51948 whole entry partner): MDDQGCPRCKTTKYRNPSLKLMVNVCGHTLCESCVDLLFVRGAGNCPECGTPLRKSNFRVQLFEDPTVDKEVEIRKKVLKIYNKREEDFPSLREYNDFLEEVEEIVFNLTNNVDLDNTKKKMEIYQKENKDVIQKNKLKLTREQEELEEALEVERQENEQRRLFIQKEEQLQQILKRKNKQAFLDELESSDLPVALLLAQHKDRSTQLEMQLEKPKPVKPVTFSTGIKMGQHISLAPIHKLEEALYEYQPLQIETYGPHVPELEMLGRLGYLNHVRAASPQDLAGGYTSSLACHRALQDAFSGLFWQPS
Protocol: To kinase assay buffer were added RNA Pol II-CTD-GST protein (Jena Bioscience, Germany) as a substrate, Cdk9/cyclin T1 or Cdk7/cyclin H/MAT1 recombinant protein (Upstate) as an enzyme, 2.5 μCi [γ-32P]ATP, and 100 μM MgAc/ATP. The total reaction volume was adjusted to 50 μl. Kinase assay reaction was induced at 30° C. for 20 minutes. Upon completion of the reaction, electrophoresis was performed on 8% SDS-polyacrylamide gel. The activities of Cdk7 and Cdk9 over the concentrations of the compounds of Example 1 and Example 2 were confirmed by autoradiography and the results are shown in FIG. 5˜FIG. 8 and Table 3.
The intensity of bands was analyzed by densitometry (GS-800, Bio-Rad).

SNU-354 cells [2] = assay: 3H-thymidine incorporation assay; type: cell-based, human; details: 18˜24 hours
Protocol: SNU-354 cells were distributed in a 6-well plate at the density of 5×10^4 cells/well, followed by culture in FBS-free medium for 24 hours. 24 hours later, the medium was replaced with the fresh one supplemented with FBS, the compounds of Examples 1 and 2 at different concentrations and 1 μCi/mL [^3H]dT (GE Healthcare, UK). 18˜24 hours later, the cells were washed with cold PBS and then fixed with cold 5% trichloroacetic acid. DNA was lysed in […] sodium hydroxide at 37° C. for 1 hour. Then, [^3H]dT incorporated during intracellular DNA synthesis was measured by LSC (liquid scintillation counting). Intracellular DNA synthesis measured above was used as index for the evaluation of cell viability.

SNU-354 cells [3] = assay: MTT assay, cell viability; type: cell-based; details: Homo sapiens, SNU-354, read-out: Cell viability (%)
Protocol: Cell viability was measured by MTT assay. SNU-354 cells in the log phase of cell growth curve were distributed in a 24-well plate at the density of 2×10^4 cells/well. […] After allowing enough time for reaction, MTT reagent (MTT dissolved in PBS at the concentration of 5 mg/mL) (Sigma-Aldrich, USA) was added to each well, followed by reaction at 37° C. for 3 hours. Then, the supernatant was eliminated and the precipitated formazan crystals were dissolved in dimethyl sulfoxide, followed by measurement of absorbance with ELISA plate reader.

[4] = test system: caspase-3 activity in SNU-354 cells; assay: Measurement of caspase-3 activity (Experimental Example 4); type: cell-based, human; design: unit not given here
Protocol: SNU-354 cells treated with the compounds of Example 1˜Example 6 were lysed with lysis buffer (0.5% triton X-100, 20 mM Tris-HCl (pH 7.5), 2 mM magnesium chloride, 1 mM DTT, 1 mM EGTA, 50 mM β-glycerophosphate, 25 mM sodium fluoride, 1 mM Na3VO4, 2 μg/mL leupeptin, 2 μg/mL pepstatin A, 100 μg/mL phenylmethylsulfonyl fluoride, 1 μg/mL antipain). The protease analysis buffer necessary for the reaction (20 mM HEPES (pH 7.5), 10% glycerol, 2 mM DTT) was mixed with 20 μM Ac-DEVD-AMC (BD Biosciences, CA, USA) and cell lysates, followed by reaction at 37° C. for 1 hour. Upon completion of the reaction, caspase-3 activity was measured at 380 nm of excitation and 460 nm of emission with spectrofluorometer (TECAN, Switzerland) and the results are shown in FIG. 25 and Table 12.

Structure (SMILES)	Cdk7 activity (Cdk7; 0.1 nM)	Cdk7 activity (Cdk7; 0.5 nM)	Cdk7 activity (Cdk7; 1 nM)	Cdk7 activity (Cdk7; 5 nM)	Cdk7 activity (Cdk7; 10 nM)	Cdk7 activity (Cdk7; 50 nM)	Cdk9 activity (Cdk9; 0.1 nM)	Cdk9 activity (Cdk9; 0.5 nM)	Cdk9 activity (Cdk9; 1 nM)	Cdk9 activity (Cdk9; 5 nM)	Cdk9 activity (Cdk9; 10 nM)	Cdk9 activity (Cdk9; 50 nM)	PARP cleavage, time from the treatment after which it was caused (SNU-354 cells [1])	Cdk7 activity (Cdk7/cyclin H/MAT1; 10 nM)	Cdk7 activity (Cdk7/cyclin H/MAT1; 100 nM)	Cdk7 activity (Cdk7/cyclin H/MAT1; 1000 nM)	^3H-thymidine incorporation (%) (SNU-354 cells [2]; 5.0 μM)	^3H-thymidine incorporation (%) (SNU-354 cells [2]; 10.0 μM)	^3H-thymidine incorporation (%) (SNU-354 cells [2]; 50.0 μM)	viability at 0.5 µM (SNU-354 cells [3])	other results
NC(=O)c1c(Br)nc2n([C@H]3O[C@@H](CO)[C@H](O)[C@H]3O)cnc(N)c1-2 [Example 1, 4-amino-6-bromo-1-((2S,3R,4R,5S)-3,4-dihydroxy-5-(hydroxymethyl)-tetrahydrofuran-2-yl)-1H-pyrrolo[2,3-d]pyrimidine-5-carboxamide]	90.1%	76.3%	37.6%	3.0%	1.7%	0.3%	90.4%	87.0%	46.1%	1.9%	1.3%	0.2%	12 h	41.8%	10.8%	5.8%	84.0%	35.2%	15.8%	96.4%	viability at 1 µM (SNU-354 cells [3]): 84.3%; viability at 2 µM (SNU-354 cells [3]): 74%; viability at 5 µM (SNU-354 cells [3]): 68%; viability at 10 µM (SNU-354 cells [3]): 55.6%; viability at 50 µM (SNU-354 cells [3]): 36.6%; Caspase-3 activity ([4]; 5 μM): 8.4; Caspase-3 activity ([4]; 10 μM): 8.1
CC(C)C(=O)OC[C@@H]1O[C@H](n2cnc(N)c3c(C(N)=O)c(Br)nc2-3)[C@H](O)[C@H]1O [Example 2, ((2S,3R,4R,5S)-5-(4-amino-6-bromo-5-carbamoyl-1H-pyrrolo[2,3-d]pyrimidin-1-yl)-3,4-dihydroxy-tetrahydrofuran-2-yl)methyl isobutyrate]	88.4%	44.0%	12.7%	3.3%	1.6%	0.6%	81.5%	27.3%	11%	2.2%	1.1%	0.7%	6 h	92.2%	91.1%	6.5%	50.7%	20.4%	8%	86.3%	viability at 1 µM (SNU-354 cells [3]): 75.5%; viability at 2 µM (SNU-354 cells [3]): 64.7%; viability at 5 µM (SNU-354 cells [3]): 47.6%; viability at 10 µM (SNU-354 cells [3]): 35.4%; viability at 50 µM (SNU-354 cells [3]): 16.8%; Caspase-3 activity ([4]; 5 μM): 9.7; Caspase-3 activity ([4]; 10 μM): 11.0
